Active and inactive are the calls of the source. No cut-off for these calls is given here.
Key:
[1] = molecular target: T1, Cholesteryl ester transfer protein (Homo sapiens, UniProt P11597); assay: Inhibition of human plasma-derived CETP activity by scintillation proximity assay; assay type: cell-free
T1 sequence (P11597 whole entry): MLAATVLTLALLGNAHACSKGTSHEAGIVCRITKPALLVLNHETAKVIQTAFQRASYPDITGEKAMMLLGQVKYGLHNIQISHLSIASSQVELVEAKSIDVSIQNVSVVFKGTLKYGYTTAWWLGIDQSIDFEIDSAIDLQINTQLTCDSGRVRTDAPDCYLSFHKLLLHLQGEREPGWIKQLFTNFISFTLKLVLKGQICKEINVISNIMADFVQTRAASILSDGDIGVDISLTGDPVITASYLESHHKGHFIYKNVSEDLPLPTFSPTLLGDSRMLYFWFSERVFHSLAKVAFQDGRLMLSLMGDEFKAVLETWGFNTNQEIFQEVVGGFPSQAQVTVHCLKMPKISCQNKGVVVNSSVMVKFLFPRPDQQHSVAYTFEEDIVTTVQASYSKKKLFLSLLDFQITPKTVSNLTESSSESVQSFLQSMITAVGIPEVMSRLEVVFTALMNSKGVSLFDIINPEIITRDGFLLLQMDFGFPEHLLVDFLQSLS

[2] = molecular target: T1, Cholesteryl ester transfer protein; assay: Inhibition of CETP-mediated transfer of [3H]cholesteryl ester from HDL in human plasma after 18 hrs; assay type: cell-free
[3] = Inhibition of CETP-mediated transfer of cholesteryl ester to LDL/VLDL in hamster plasma by Roar assay; assay type: cell-free; conditions: Cricetinae
[4] = Inhibition of CETP-mediated transfer of cholesteryl ester to LDL/VLDL in rabbit plasma by Roar assay; assay type: cell-free; conditions: Oryctolagus cuniculus
[5] = molecular target: T1, Cholesteryl ester transfer protein; assay: Inhibition of CETP-mediated transfer of cholesteryl ester to LDL/VLDL in human plasma by Roar assay; assay type: cell-free
[6] = Inhibition of CETP-mediated transfer of cholesteryl ester to LDL/VLDL in monkey plasma by Roar assay; assay type: cell-free; conditions: Macaca mulatta
[7] = molecular target: Phospholipid transfer protein (Homo sapiens) (UniProt P55058); assay: Inhibition of PLTP activity assessed as phosphatidylcholine transferred from [3H]phosphatidylcholine (dipalmitoyl)-labeled liposomes to HDL by cell based liquid scintillation counter
[8] = molecular target: T2, Phosphatidylcholine-sterol acyltransferase (Homo sapiens) (UniProt P04180); assay: Inhibition of LCAT activity in human plasma assessed as change in cholesteryl ester/free cholesterol ratio by cell based assay
T2 sequence (whole entry): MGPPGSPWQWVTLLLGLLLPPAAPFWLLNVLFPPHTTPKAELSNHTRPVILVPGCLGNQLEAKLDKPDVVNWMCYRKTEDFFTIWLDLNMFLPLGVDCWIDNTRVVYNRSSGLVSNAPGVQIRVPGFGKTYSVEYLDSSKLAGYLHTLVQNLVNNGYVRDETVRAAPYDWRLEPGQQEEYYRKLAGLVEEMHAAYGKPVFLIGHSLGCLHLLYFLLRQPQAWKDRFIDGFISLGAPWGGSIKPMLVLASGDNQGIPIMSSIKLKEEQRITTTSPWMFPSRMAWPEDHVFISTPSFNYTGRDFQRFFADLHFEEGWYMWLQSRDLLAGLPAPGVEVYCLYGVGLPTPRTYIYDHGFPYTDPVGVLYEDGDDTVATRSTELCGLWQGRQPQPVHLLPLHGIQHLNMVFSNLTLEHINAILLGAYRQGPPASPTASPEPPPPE

[9] = molecular target: T3, Hepatic triacylglycerol lipase (Homo sapiens) (UniProt P11150); assay: Inhibition of hepatic lipase activity assessed as release of free fatty acid from hydrolysis of VLDL by cell based assay
T3 sequence (whole entry): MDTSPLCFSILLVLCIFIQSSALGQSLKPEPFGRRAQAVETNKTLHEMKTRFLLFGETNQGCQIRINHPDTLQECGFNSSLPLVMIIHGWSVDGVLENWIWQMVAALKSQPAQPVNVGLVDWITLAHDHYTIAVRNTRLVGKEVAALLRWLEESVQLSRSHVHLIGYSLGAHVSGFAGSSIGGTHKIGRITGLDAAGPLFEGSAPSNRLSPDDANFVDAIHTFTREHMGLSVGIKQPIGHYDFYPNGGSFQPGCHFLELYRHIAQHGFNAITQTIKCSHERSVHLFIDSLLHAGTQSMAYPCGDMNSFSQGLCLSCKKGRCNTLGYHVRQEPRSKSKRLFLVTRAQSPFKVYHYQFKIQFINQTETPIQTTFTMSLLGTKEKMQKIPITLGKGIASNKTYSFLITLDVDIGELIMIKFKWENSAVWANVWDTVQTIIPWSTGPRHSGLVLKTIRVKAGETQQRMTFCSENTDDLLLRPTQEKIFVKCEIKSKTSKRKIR

[10] = molecular target: T4, Lipoprotein lipase (Homo sapiens) (UniProt P06858); assay: Inhibition of lipoprotein lipase activity assessed as release of free fatty acid from hydrolysis of VLDL by cell based assay
T4 sequence (whole entry): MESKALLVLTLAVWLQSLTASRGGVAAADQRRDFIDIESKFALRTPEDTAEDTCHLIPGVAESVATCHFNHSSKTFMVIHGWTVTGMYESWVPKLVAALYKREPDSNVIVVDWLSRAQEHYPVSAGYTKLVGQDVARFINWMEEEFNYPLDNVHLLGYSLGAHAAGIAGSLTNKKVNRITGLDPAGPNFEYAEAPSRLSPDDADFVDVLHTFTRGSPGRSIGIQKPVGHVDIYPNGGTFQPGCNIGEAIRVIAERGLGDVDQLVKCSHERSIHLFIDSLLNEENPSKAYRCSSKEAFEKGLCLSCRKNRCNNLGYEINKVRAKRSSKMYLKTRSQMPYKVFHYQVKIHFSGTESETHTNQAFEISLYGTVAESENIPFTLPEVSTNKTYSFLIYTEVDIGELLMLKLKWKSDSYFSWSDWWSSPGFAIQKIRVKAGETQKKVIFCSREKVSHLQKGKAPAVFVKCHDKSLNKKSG

[11] = molecular target: T5, Microsomal triglyceride transfer protein large subunit (Homo sapiens) (UniProt P55157); assay: Inhibition of microsomal triglyceride transfer protein by cell based assay
T5 sequence (whole entry): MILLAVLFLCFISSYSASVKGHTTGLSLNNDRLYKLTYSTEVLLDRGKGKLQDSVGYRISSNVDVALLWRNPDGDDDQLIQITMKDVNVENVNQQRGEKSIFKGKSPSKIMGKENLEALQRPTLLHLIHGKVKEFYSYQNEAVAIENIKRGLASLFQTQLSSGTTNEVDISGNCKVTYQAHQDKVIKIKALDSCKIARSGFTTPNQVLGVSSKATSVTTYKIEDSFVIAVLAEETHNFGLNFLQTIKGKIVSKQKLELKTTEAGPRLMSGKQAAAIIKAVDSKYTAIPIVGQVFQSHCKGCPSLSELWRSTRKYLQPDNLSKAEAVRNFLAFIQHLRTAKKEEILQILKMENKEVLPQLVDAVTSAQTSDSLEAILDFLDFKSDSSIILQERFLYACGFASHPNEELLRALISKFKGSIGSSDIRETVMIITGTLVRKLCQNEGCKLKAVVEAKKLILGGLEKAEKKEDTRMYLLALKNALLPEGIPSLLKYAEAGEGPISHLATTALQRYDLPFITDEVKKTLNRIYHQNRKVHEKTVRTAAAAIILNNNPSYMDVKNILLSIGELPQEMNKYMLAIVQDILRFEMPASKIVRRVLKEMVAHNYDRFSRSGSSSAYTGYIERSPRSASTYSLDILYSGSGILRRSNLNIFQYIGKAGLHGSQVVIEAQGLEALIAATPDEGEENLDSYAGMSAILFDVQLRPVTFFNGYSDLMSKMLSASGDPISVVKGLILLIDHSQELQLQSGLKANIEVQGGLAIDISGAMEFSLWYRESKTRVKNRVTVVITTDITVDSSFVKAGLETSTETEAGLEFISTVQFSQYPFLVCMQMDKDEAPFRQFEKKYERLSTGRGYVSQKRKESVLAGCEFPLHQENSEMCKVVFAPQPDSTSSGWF

[12] = molecular target: T6, Endothelial lipase (Homo sapiens) (UniProt Q9Y5X9); assay: Inhibition of endothelial lipase by cell based assay
T6 sequence (whole entry): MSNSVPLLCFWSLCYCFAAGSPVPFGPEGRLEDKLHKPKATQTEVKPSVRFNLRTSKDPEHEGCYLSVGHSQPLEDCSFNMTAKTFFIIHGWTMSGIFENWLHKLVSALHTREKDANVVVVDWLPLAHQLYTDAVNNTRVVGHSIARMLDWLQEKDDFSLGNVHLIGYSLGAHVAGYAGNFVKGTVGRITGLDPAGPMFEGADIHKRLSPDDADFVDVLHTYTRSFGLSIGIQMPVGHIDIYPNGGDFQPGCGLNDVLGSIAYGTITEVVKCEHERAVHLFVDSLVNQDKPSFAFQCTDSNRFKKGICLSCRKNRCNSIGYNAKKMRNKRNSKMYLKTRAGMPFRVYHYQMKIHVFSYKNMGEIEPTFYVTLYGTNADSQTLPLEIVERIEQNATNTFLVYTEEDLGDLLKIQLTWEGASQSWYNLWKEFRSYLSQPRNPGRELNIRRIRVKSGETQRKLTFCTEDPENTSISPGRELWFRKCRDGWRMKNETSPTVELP

[13] = Metabolic stability in human liver microsomes assessed as half life; assay type: ADME, Microsome
[14] = Oral bioavailability in rat at 10 mg/kg; assay type: ADME, organism-based; conditions: in vivo
[15] = Tmax in rat at 2 to 3 mg/kg, iv and 10 mg/kg, po; assay type: ADME, organism-based; conditions: in vivo
[16] = AUC in rat at 2 to 3 mg/kg, iv and 10 mg/kg, po; assay type: ADME, organism-based; conditions: plasma
[17] = Half life in rat at 2 to 3 mg/kg, iv and 10 mg/kg, po; assay type: ADME, organism-based; conditions: in vivo
[18] = Clearance in rat at 2 to 3 mg/kg, iv and 10 mg/kg, po; assay type: ADME, organism-based; conditions: in vivo
[19] = Volume of distribution at steady state in rat at 2 to 3 mg/kg, iv and 10 mg/kg, po; assay type: ADME, organism-based; conditions: in vivo, read-out: Vdss
[20] = Oral bioavailability in dog at 10 mg/kg; assay type: ADME, organism-based, Canis lupus familiaris; conditions: in vivo

Chain of Phospholipid transfer protein (Homo sapiens) (P55058 whole entry): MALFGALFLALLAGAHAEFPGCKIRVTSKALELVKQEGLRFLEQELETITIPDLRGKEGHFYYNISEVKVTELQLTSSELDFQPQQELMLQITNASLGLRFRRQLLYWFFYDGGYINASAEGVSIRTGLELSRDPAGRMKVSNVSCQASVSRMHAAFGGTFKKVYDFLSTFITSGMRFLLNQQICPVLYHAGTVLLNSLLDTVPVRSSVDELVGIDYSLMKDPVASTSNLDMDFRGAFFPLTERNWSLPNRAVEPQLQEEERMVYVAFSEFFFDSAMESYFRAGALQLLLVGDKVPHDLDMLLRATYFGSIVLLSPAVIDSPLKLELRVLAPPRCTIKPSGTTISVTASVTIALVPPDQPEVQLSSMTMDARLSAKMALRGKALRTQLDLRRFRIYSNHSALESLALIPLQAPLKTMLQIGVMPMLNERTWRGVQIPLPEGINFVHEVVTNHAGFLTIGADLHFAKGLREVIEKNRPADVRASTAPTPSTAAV

IC50 [1]: 39 nM | IC50 [2]: 200 nM | IC50 [3]: 100 nM | IC50 [4]: 3.5 µM | IC50 [5]: 1200 nM | IC50 [6]: 1400 nM | Activity [7]: inactive | Activity [8]: inactive | Activity [9]: inactive | Activity [10]: inactive | Activity [11]: inactive | Activity [12]: inactive | half-life [13]: > 128 min | bioavailability [14]: 31% | Tmax [15]: 6 h | AUC [16]: 31300 ng·h/mL | half-life [17]: 1680 min | clearance [18]: 1.8 mL/min/kg | Vd [19]: 0.36 L/kg | bioavailability [20]: 5%
SMILES: O[C@@H](CN1c2cccc(-c3cccc(OC(F)(F)F)c3)c2CC[C@@H]1c1cccc(OC(F)(F)C(F)F)c1)C(F)(F)F

— ChEMBL document CHEMBL1152778, “Design, synthesis, and biological evaluation of (2R,alphaS)-3,4-dihydro-2-[3-(1,1,2,2-tetrafluoroethoxy)phenyl]-5-[3-(trifluoromethoxy)-phenyl]-alpha-(trifluoromethyl)-1(2H)-quinolineethanol as potent and orally active cholesteryl ester transfer protein inhibitor” (J Med Chem, 2009)
